Earlier results on two compounds are cited in patent US6329349A, “Methods for reducing ischemic injury of the heart via the sequential administration of monophosphoryl lipid A and adenosine receptor agents” (priority 2000, dated 2001).

Where two headings read alike, the source gives them in different places.

One data set deals with A2. The conditions noted are these: table of Compound 8; cited from earlier work.
In another data set the target is A3 adenosine receptor. The conditions noted are these: cited from earlier work.
In the next data set the target is A2a adenosine receptor. The conditions noted are these: Table II; cited from earlier work.
A further data set deals with A1 adenosine receptor. Particulars: Table II; cited from earlier work.

With `NCCNC(=O)Cc1ccc(NC(=O)Cc2ccc(Nc3ncnc4c3ncn4[C@@H]3O[C@H](CO)[C@@H](O)[C@H]3O)cc2)cc1` [Compound 8], the Ki (commonly a dissociation constant, usually derived from enzyme kinetics or from competition with a known ligand) is 210 nM on A2 and 4 nM on A3 adenosine receptor (table of Compound 8).

With `CCNC(=O)[C@H]1O[C@@H](n2cnc3c(NC4CCCCC4)ncnc32)[C@H](O)[C@@H]1O` [N^6 -cyclohexyl NECA, N6-cyclohexyl 5'-N-ethylcarboxamidoadenosine], the Ki at A2a adenosine receptor is 170 nM; at A3 adenosine receptor (Table II), 16 nM; at A1 adenosine receptor, 0.43 nM.
